Earlier results as cited in PubChem BioAssay AID1259410 (Chemical Carcinogenesis Research Information System (CCRIS), 2018).

Test system: rodent tumor promotion studies, tumor incidence
Assay: CCRIS tumor promotion studies

For O=c1cc(-c2ccccc2)oc2ccc3ccccc3c12, the outcome (Carcinogen: (+/-)-TRANS-7,8-DIHYDROBENZO[A]PYRENE-7,8-DIOL, 61443-57-0, Doses [Carcinogen]: 1 UG CO-ADMINISTERED WITH PROMOTER DOSE, Doses [Promoter]: 1 UG INJECTED INTO NEWLY HATCHED SAC-FRY CO-ADMINISTERED WITH CARCINOGEN DOSE (STUDY DURATION: 9 MO), Route [Carcinogen]: INJECTION, Route [Promoter]: INJECTION, Species: FISH, Strain/Sex: RAINBOW TROUT/MALE,FEMALE) is given as “liver: tumor”, the outcome (Carcinogen: DIETHYLNITROSAMINE, 55-18-5, Doses [Carcinogen]: 200 MG/KG BW ONCE (STUDY DURATION: 28 WK), Doses [Promoter]: 1% IN DIET FOR 26 WK BEGINNING 2 WK POST LAST CARCINOGEN DOSE, 2/3 PARTIAL HEPATECTOMY PERFORMED AT WEEK 3 (STUDY DURATI, Route [Carcinogen]: INTRAPERITONEAL, Route [Promoter]: ORAL, Species: RAT, Strain/Sex: F344/MALE) is given as “liver: tumor” and the outcome (Doses [Carcinogen]: 0.5 PPM AQUEOUS SOLUTION FOR 30 MIN EXPOSURE OF EMBRYOS 21 D AFTER FERTILIZATION, Doses [Promoter]: 0.05% IN DIET FOR 8 WK (STUDY DURATION: 1 YR), Route [Carcinogen]: IMMERSION, Route [Promoter]: ORAL, Species: FISH, Strain/Sex: MT. SHASTA RAINBOW TROUT) is given as “liver: hepatocellular carcinoma or mixed carcinoma or hepatocellular adenoma”.

For C=C(C)[C@]12C[C@@H](C)[C@@]34O[C@](CCCCCCCCC)(O[C@@H]1[C@@H]3[C@@H]1O[C@]1(CO)[C@@H](O)[C@]1(O)C(=O)C(C)=C[C@H]14)O2, the outcome (Carcinogen: 7,12-DIMETHYLBENZ(A)ANTHRACENE, Doses [Carcinogen]: 100 NMOL ONCE, Doses [Promoter]: 10, 20 NMOL 2/WK FOR 24 WK, Route [Carcinogen]: DERMAL, Route [Promoter]: DERMAL, Species: MOUSE, Strain/Sex: NMRI/FEMALE) is given as “integumentary system (skin): tumor (nos)”.

In the case of O=C1c2ccccc2C(=O)c2c(O)cccc21, the outcome (Carcinogen: METHYLAZOXYMETHANOL ACETATE, 592-62-1, Doses [Carcinogen]: 25 MG/KG BW 1/WK FOR 2 WK, Doses [Promoter]: 0, 1% IN DIET FOR 42 WK BEGINNING 1 WK POST CARCINOGEN TREATMENT (STUDY DURATION: 44 WK), Route [Carcinogen]: INTRAPERITONEAL, Route [Promoter]: ORAL, Species: RAT, Strain/Sex: ACI/FEMALE) is given as “intestine: adenoma” and the outcome (Carcinogen: METHYLAZOXYMETHANOL ACETATE, 592-62-1, Doses [Carcinogen]: 25 MG/KG BW 1/WK FOR 2 WK, Doses [Promoter]: 0, 1% IN DIET FOR 42 WK BEGINNING 1 WK POST CARCINOGEN TREATMENT (STUDY DURATION: 44 WK), Route [Carcinogen]: INTRAPERITONEAL, Route [Promoter]: ORAL, Species: RAT, Strain/Sex: ACI/MALE) is given as “intestine: adenoma, adenocarcinoma”.

For CC(=O)OC/C=C(C)/C=C/C=C(C)/C=C/C1=C(C)CCCC1(C)C, the outcome (Carcinogen: 3'-METHYL-4-DIMETHYLAMINOAZOBENZENE, 55-80-1, Doses [Carcinogen]: 0.06% IN DIET FOR 7 WK, Doses [Promoter]: 0, 6.25, 12.5, 25 MG 1/5 D FOR 10 WK ADMINISTERED 3 WK POST CARCINOGEN (STUDY DURATION: 25 WK), Doses [Promoter]: 0, 6.25, 12.5, 25 MG 1/5 D FOR 10 WK ADMINISTERED 3 WK POST CARCINOGEN (STUDY DURATION: 25 WK), Route [Carcinogen]: ORAL, Route [Promoter]: INTRAPERITONEAL, Species: RAT, Strain/Sex: DONRYU/MALE) is listed as “liver: hepatocellular carcinoma”.

For Cc1ccc(O)c(C(C)(C)C)c1, the outcome (Carcinogen: N-BUTYL-N-(4-HYDROXYBUTYL)NITROSAMINE, 3817-11-6, Doses [Carcinogen]: 0.5% IN DRINKING WATER FOR 4 WK, Doses [Promoter]: 0, 1% IN DIET FOR 32 WK BEGINNING 3 D POST CARCINOGEN TREATMENT (STUDY DURATION: 36 WK), Route [Carcinogen]: ORAL, Route [Promoter]: ORAL, Species: RAT, Strain/Sex: F344/MALE) is given as “bladder: carcinoma, papilloma”.

In the case of CC1=C[C@H]2[C@@]3(O)[C@H](C)[C@@H](OC(=O)c4ccccc4)[C@]4(OC(=O)c5ccccc5)[C@H]([C@@H]3C=C(CO)C[C@]2(O)C1=O)C4(C)C, the outcome (Carcinogen: 7,12-DIMETHYLBENZ(A)ANTHRACENE, Doses [Carcinogen]: TOP, Route [Carcinogen]: DERMAL, Route [Promoter]: DERMAL, Species: MOUSE, Strain/Sex: MALE,FEMALE) is given as “integumentary system (skin)”.

For CN[C@@H]1C[C@H]2O[C@@](C)([C@@H]1OC)n1c3ccccc3c3c4c(c5c6ccccc6n2c5c31)C(=O)NC4, the outcome (Carcinogen: 7,12-DIMETHYLBENZ[A]ANTHRACENE, 57-97-6, Doses [Carcinogen]: 100 UG IN 100 µL ACETONE TO THE DORSAL SKIN ONCE, Doses [Promoter]: 0, 10, 50 UG IN 100 µL ACETONE TO THE DORSAL SKIN 2/WK FOR 29 WK BEGINNING 1 WK POST CARCINOGEN DOSE (STUDY DURATION: 30, Doses [Promoter]: 0, 10, 50 UG IN 100 µL ACETONE TO THE DORSAL SKIN 2/WK FOR 29 WK BEGINNING 1 WK POST CARCINOGEN DOSE (STUDY DURATION: 30, Route [Carcinogen]: DERMAL, Route [Promoter]: DERMAL, Species: MOUSE, Strain/Sex: CD-1/FEMALE) is given as “skin: tumor”.

For Cc1cc(O)c2c(c1)Cc1cccc(O)c1C2=O, the outcome (Carcinogen: 7,12-DIMETHYLBENZ(A)ANTHRACENE, Doses [Carcinogen]: 10 NMOL ONCE, Doses [Promoter]: 50 UG 2/WK FOR 21 WK, Route [Carcinogen]: DERMAL, Route [Promoter]: DERMAL, Species: MOUSE, Strain/Sex: SENCAR/FEMALE) is listed as “integumentary system (skin): papilloma” and the outcome (Carcinogen: 7,12-DIMETHYLBENZ[A]ANTHRACENE, 57-97-6, Doses [Carcinogen]: 6.4 UG ONCE, Doses [Promoter]: 0, 52.8 UG 1/WK FOR 10 WK BEGINNING 2 WK POST CARCINOGEN DOSE (STUDY DURATION: 32 WK), Route [Carcinogen]: DERMAL, Route [Promoter]: DERMAL, Species: MOUSE, Strain/Sex: SENCAR/FEMALE) is listed as “skin: papilloma”.

In the case of O=C1C=CC(=O)c2ccccc21, the outcome (Carcinogen: 7,12-DIMETHYLBENZ[A]ANTHRACENE, 57-97-6, Doses [Carcinogen]: 25 NMOL IN 0.2 ML ACETONE ONCE, Doses [Promoter]: 440, 880, 1760 NMOL/MOUSE 1/WK FOR 30 WK BEGINNING 2 WK POST CARCINOGEN DOSE (STUDY DURATION: 32 WK), Doses [Promoter]: 440, 880, 1760 NMOL/MOUSE 1/WK FOR 30 WK BEGINNING 2 WK POST CARCINOGEN DOSE (STUDY DURATION: 32 WK), Route [Carcinogen]: DERMAL, Route [Promoter]: DERMAL, Species: MOUSE, Strain/Sex: SENCAR/FEMALE) is listed as “skin: papilloma”.

In the case of C[C@H](N)[C@H](O)c1cccc(O)c1, the outcome (Carcinogen: N-METHYL-N'-NITRO-N-NITROSOGUANADINE, 70-25-7, Doses [Carcinogen]: 25 UG/ML IN DRINKING WATER FOR 20 WK, Doses [Promoter]: 0, 5 MG/KG BW IN OLIVE OIL 1/2 D BEGINNING POST CARCINOGEN TREATMENT (STUDY DURATION: 52 WK), Route [Carcinogen]: ORAL, Route [Promoter]: SUBCUTANEOUS, Species: RAT, Strain/Sex: WISTAR/MALE) is listed as “stomach: adenocarcinoma”.

In the case of COc1c(N2C[C@@H]3CCCN[C@@H]3C2)c(F)cc2c(=O)c(C(=O)O)cn(C3CC3)c12, the outcome (Carcinogen: N-METHYL-N-NITROSOUREA, 684-93-5, Doses [Carcinogen]: 4.5 MG/KG BW 1/WK FOR FIRST 10 WK, Doses [Promoter]: 0, 500 MG/KG BW/D FOR 24 WK BEGINNING 14 WK POST CARCINOGEN FIRST DOSE (STUDY DURATION: 38 WK), Route [Carcinogen]: GAVAGE, Route [Promoter]: GAVAGE, Species: RAT, Strain/Sex: WISTAR/MALE, FEMALE) is given as “forestomach: squamous cell papilloma, glandular stomach adenocarcinoma”.
